In patent US20080254010A1, “Controlling Clostridium difficile-Associated Disease in the Gastrointestinal Tract” (priority 2007, published 2008) one finds inhibition data, which are given here for one compound.

The test concerns C. difficile spores. In words: Inhibition of germination of spores and/or inhibition of growth in Duncan and Foster growth medium. The class given is cell-based, Clostridium difficile. To be noted: Clostridioides difficile; 0.7 mM in growth medium; by 17 h; read-out: inhibition of spore germination.

As for `CC/C=C\C/C=C\C/C=C\CCCCCCCC(=O)O` [linolenic acid], the inhibition at 700 µM is about 5%.

For orientation: inhibition means the relative decrease from the control value, in per cent.
